The source of these data is patent publication EP4763837A1, “PHOTOCHROMIC COMPOUND, CURABLE COMPOSITION, OPTICAL ARTICLE, LENS, AND EYEGLASSES” (TOKUYAMA CORPORATION, priority 2023, dated 2025).

Values joined by “and” are separate entries in the source; they are usually repeats but may differ in a detail not shown here. Equal entries are not always repeated.

A short description of series [1]: Photochromic property of photochromic laminate made by coating method. In kind it is physicochemical. The conditions noted are these: for Residual ratio / Color developing density at 23°C: laminate by coating method; for Residual ratio: A96/A0 x 100 after 96 hours accelerated degradation, xenon weather meter X25; for Color developing density at 23°C: absorbance difference after 240 seconds irradiation at the maximum absorption wavelength of the same line. The source says: First, the photochromic compound obtained in Example 1, a photoinitiator, and a polymerizable compound were mixed to obtain a curable composition.
The polymerizable compound was a combination of the following radical polymerizable monomers:
Polyethylene glycol dimethacrylate (average molecular weight: 736): 42 parts by mass • Polyethylene glycol dimethacrylate (average molecular weight: 536): 12 parts by mass • Trimethylolpropane methacrylate: 38 parts by mass γ-Methacryloyloxypropyltrimethoxysilane: 2 parts by mass Glycidyl methacrylate: 1 part by mass.
Note that, in the curable composition, the photochromic compound was added in an amount of 0.25 mmol taking a total amount of the radical polymerizable monomers as 100 g.
Phenylbis(2,4,6-trimethylbenzoyl)phosphine oxide (photoinitiator: Omnirad 819): 0.3 parts by mass Ethylene bis(oxyethylene) bis[3-(5-tert-butyl-4-hydroxy-m-tolyl) propionate] (stabilizer, Irganox 245): 1 part by mass Bis(1,2,2,6,6-pentamethyl-4-piperidyl)sebacate: 3 parts by mass Leveling agent (L-7001) manufactured by DuPont Toray Specialty Materials K.K.: 0.1 parts by mass.
Using this curable composition, a photochromic laminate was obtained by a lamination method including polymerization as follows.
First, a thiourethane plastic lens with a center thickness of 2 mm and a refractive index of 1.60 was prepared as an optical substrate. Note that, the thiourethane plastic lens had been alkaline-etched in a 10% sodium hydroxide aqueous solution at 50°C for 5 minutes in advance, and then thoroughly washed with distilled water.
A spin coater (1H-DX2, manufactured by MIKASA CO., LTD) was used to coat a surface of the above-mentioned plastic lens with a moisture-curing primer (product name: TR-SC-P, manufactured by Tokuyama Corporation) at a rotation speed of 70 rpm for 15 seconds, followed by 1000 rpm for 10 seconds. Then, about 2 g of the photochromic curable composition obtained above was spin-coated at a rotation speed of 60 rpm for 40 seconds, followed by 600 rpm for 10 to 20 seconds so as to achieve a photochromic coating layer with a thickness of 40 µm.
The lens of which surface had been coated with the photochromic curable composition (photochromic coating layer) was irradiated with light for 90 seconds in a nitrogen gas atmosphere using a metal halide lamp with an output of 200 mW/cm^2 to cure the coating. The resultant was then further heated at 110°C for 1 hour to produce a photochromic laminate with a photochromic layer.
Photochromic laminates were produced using the photochromic compounds obtained in Examples 2 to 20 in the same manner as in Example 21.
Photochromic laminates were obtained using photochromic compounds represented by Formulae (A) to (D) below in the same manner as in Example 21. [drawing 89] [drawing 90] [drawing 91] [drawing 92] [drawing 93]
The resulting photochromic laminates were evaluated by the below-mentioned methods. • (1) Photochromic property • [1] Maximum absorption wavelength (λmax): This is the maximum absorption wavelength after color development determined by a spectrophotometer manufactured by Otsuka Electronics Co., Ltd. (instantaneous multichannel photo detector MCPD3000) and was used as an index of a color tone upon color development. • [2] Color developing density at 23°C (A23): This is a difference between an absorbance {ε(240)} after irradiation with light at 23°C for 240 seconds and an absorbance ε(0) when not irradiated with light at the maximum absorption wavelength and was used as an index of a color developing density. The higher this value is, the better a photochromic property is. • [3] Color fading half-life at 23°C [τ1/2 (sec).)]: This is a period of time taken by an absorbance at the maximum absorption wavelength of a sample to decrease to 1/2 of {ε(240)-ε(0)} when irradiation is stopped after irradiation with light at 23°C for 240 seconds, and was used as an index of a color fading rate. The shorter this period of time is, the faster the color fading rate is. • [4] […]

Series [2] in a line: Solubility of photochromic compound in polymerizable compounds. The class given is physicochemical. Also noted: key: 1: No haze is seen when checked under transmission of light, and the sample is completely dissolved.; 2: A very thin haze is seen to the extent that it can be seen under transmission of light.; 3: A thin haze that can be seen under transmission of light is seen.; 4: A haze can be seen even without transmission of light. As to conditions: 35 µmol/g in radical polymerizable compound composition of Example 21, 65 to 70°C; for Dissolution for 15 min / Dissolution for 30 min / Dissolution for 45 min: stirring and ultrasonic irradiation; for Dissolution for 1 hour: head reads 60 min in Tables 8 to 14. As to the method:
The photochromic compounds according to Examples and Comparative examples shown in Table 5 were evaluated for solubility in polymerizable compounds.
Specifically, a sample was prepared by adding each of the photochromic compounds to the composition, which consisted of a radical polymerizable compound, among the curable compositions used in Example 21.
Note that, this test was performed using "YOKAI-KUN USS-1" manufactured by NIHONSEIKI KAISHA LTD. under the following conditions: • Dissolution temperature: 65 to 70°C • Stirring condition: Stirring dial of 5. Ultrasonic irradiation condition: Irradiation interval of 3 sec.
Dissolution was checked every 15 minutes up to 1 hour later, the sample was visually checked by transmitting light through the sample, and a degree of dissolution was evaluated according to the following four evaluation criteria.
• 1: No haze is seen when checked under transmission of light, and the sample is completely dissolved. • 2: A very thin haze is seen to the extent that it can be seen under transmission of light. • 3: A thin haze that can be seen under transmission of light is seen. • 4: A haze can be seen even without transmission of light.
A shorter time required for the evaluation result to be 1 means higher solubility.

On to `CCCCC1(C(C)CC)c2ccccc2-c2c1c1c(c3cc(OC)c(N4CCOCC4)cc23)OC(c2ccc(OC)cc2)(c2ccc(OC)cc2)C=C1` (centres unmarked) [Formula (20-1)], for which, in series [1], the Residual ratio is 48% and 44%. For the same molecule, in series [2], the “Dissolution for 15 min” value worked out at 3, the “Dissolution for 30 min” value came to 2, the “Dissolution for 45 min” value came out at 1 and the “Dissolution for 1 hour” value is 1.

For the molecule `CCCCC1(C)c2cc(N(C)c3ccccc3)ccc2-c2c1c1c(c3cc(OC)c(OC)cc23)OC(c2ccc(OC)cc2)(c2ccc(OCCC)cc2)C=C1` (centres unmarked) [Formula (73-2)], the Residual ratio in series [1] was 62%. In series [2], the “Dissolution for 15 min” value worked out at 3, the “Dissolution for 30 min” value was 3, the “Dissolution for 45 min” value worked out at 2 and the “Dissolution for 1 hour” value is on record as 1.

With `CCC1(C)c2cc(OC)ccc2-c2c1c1c(c3cc(OC)c(Sc4c(C)cccc4C)cc23)OC(c2ccc(OC)cc2)(c2ccc(N3CCOCC3)cc2)C=C1` (centres unmarked) [Formula (74-2)], in series [1], the “Color fading half-life at 23°C” value stood at 1.5 min and the Residual ratio is 64%. In series [2], the “Dissolution for 15 min” value was 4, the “Dissolution for 30 min” value is on record as 3, the “Dissolution for 45 min” value is listed as 2 and the “Dissolution for 1 hour” value stood at 1.

`CCCCC1(CC)c2cc(OC)ccc2-c2c1c1c(c3cc(OC)c(Sc4c(C)cccc4C)cc23)OC(c2ccc(OC)cc2)(c2ccc(N3CCOCC3)cc2)C=C1` (centres unmarked) [Formula (77-1)]: the Residual ratio in series [1] stood at 67%. Further, in series [2], the “Dissolution for 15 min” value was determined as 3, the “Dissolution for 30 min” value stood at 3, the “Dissolution for 45 min” value came to 1 and the “Dissolution for 1 hour” value was 1.

As for `CCCC1(CC)c2ccccc2-c2c1c1c(c3cc(OC)c(-c4c(OC)cc(OC)cc4OC)cc23)OC(c2ccc(OC)cc2)(c2ccc(N(c3ccccc3)c3ccccc3)cc2)C=C1` (centres unmarked) [Formula (78-2)], in series [1], the Residual ratio worked out at 64%. For the same molecule, in series [2], the “Dissolution for 15 min” value is 3, the “Dissolution for 30 min” value is given as 2, the “Dissolution for 45 min” value amounted to 1 and the “Dissolution for 1 hour” value amounted to 1.

Regarding `CCCC1(CC)c2cc(C)ccc2-c2c1c1c(c3cc(OC)c(-c4ccc(N5CCOCC5)cc4)cc23)OC(c2ccc(OC)cc2)(c2ccc(N3CCOCC3)cc2)C=C1` (centres unmarked) [Formula (79-2)], the “Color fading half-life at 23°C” value in series [1] was determined as 1.3 min. Besides, in series [2], the “Dissolution for 15 min” value worked out at 3, the “Dissolution for 30 min” value was found to be 2, the “Dissolution for 45 min” value was 1 and the “Dissolution for 1 hour” value is given as 1.

For the molecule `CCCCC1(CC)c2ccccc2-c2c1c1c(c3cc(OC)c(N(C)c4ccccc4)cc23)OC(c2ccc(OC)cc2)(c2ccc(OC)cc2)C=C1` (centres unmarked) [Formula (80-2)], in series [1], the “Color fading half-life at 23°C” value came to 1.17 min, the Residual ratio stood at 79% and the “Color developing density at 23°C” value was 1.09 -. For the same molecule, in series [2], the “Dissolution for 15 min” value was 3, the “Dissolution for 30 min” value was determined as 2, the “Dissolution for 45 min” value is reported as 1 and the “Dissolution for 1 hour” value was 1.

Take `CCCOc1ccc(C2(c3ccc(N(C)c4ccccc4)cc3)C=Cc3c4c(c5cc(-c6ccc(OC)cc6OC)c(OC)cc5c3O2)-c2ccccc2C4(C)CC)cc1F` (centres unmarked) [Formula (86-1)]: the Residual ratio in series [1] is 58%.

Take `CCCOc1ccc(C2(c3ccc(OC)cc3)C=Cc3c4c(c5cc(OC)c(OC)cc5c3O2)-c2ccc(N(C)c3ccccc3)cc2C4(CC)CCC)cc1` (centres unmarked) [Formula (87-1)]: in series [1], the “Color fading half-life at 23°C” value came to 2.65 min and the Residual ratio stood at 64%. In series [2], the “Dissolution for 15 min” value worked out at 3, the “Dissolution for 30 min” value is 2, the “Dissolution for 45 min” value is given as 1 and the “Dissolution for 1 hour” value is reported as 1.

For the molecule `CCCC1(CC)c2cc(Sc3c(C)cccc3C)ccc2-c2c1c1c(c3cc(OC)ccc23)OC(c2ccc(OC)cc2)(c2ccc(N(C)c3ccccc3)cc2)C=C1` (centres unmarked) [Formula (88-1)], in series [1], the “Color fading half-life at 23°C” value was determined as 0.717 min and the Residual ratio came out at 68%.

In the case of `CCCCCCC1(C)c2cc(OC(F)(F)F)ccc2-c2c1c1c(c3cc(OC)ccc23)OC(c2ccc(OC)cc2)(c2ccc(OC)cc2)C=C1` (centres unmarked) [Formula (90-1)], the Residual ratio in series [1] was found to be 64%. In addition, in series [2], the “Dissolution for 15 min” value was 3, the “Dissolution for 30 min” value stood at 2, the “Dissolution for 45 min” value stood at 1 and the “Dissolution for 1 hour” value worked out at 1.

As for `CCCC1(CC)c2cc(OC)ccc2-c2c1c1c(c3cc(OC)ccc23)OC(c2ccc(OC)cc2)(c2ccc(N3CCOCC3)cc2)C=C1` (centres unmarked) [Formula (91-1)], in series [1], the “Color fading half-life at 23°C” value stood at 1.25 min and the Residual ratio worked out at 57%. Besides, in series [2], the “Dissolution for 15 min” value was 4, the “Dissolution for 30 min” value came out at 3, the “Dissolution for 45 min” value came to 1 and the “Dissolution for 1 hour” value stood at 1.

For the molecule `CCC1(OCCOCCO[Si](C)(C)CC[Si](O[Si](C)(C)C)(O[Si](C)(C)C)O[Si](C)(C)C)c2ccccc2-c2c1c1c(c3cc(OC)c(N4CCOCC4)cc23)OC(c2ccc(OC)cc2)(c2ccc(OC)cc2)C=C1` (centres unmarked) [Formula (C), reference compound], in series [1], the Residual ratio was 34% and 36%; the “Color developing density at 23°C” value is 1.27 - and 0.70 -. In series [2], the “Dissolution for 15 min” value was 2, the “Dissolution for 30 min” value is given as 1, the “Dissolution for 45 min” value was 1 and the “Dissolution for 1 hour” value worked out at 1.

On to `COc1ccc(C2(c3ccc(OC)cc3)C=Cc3c4c(c5cc(N6CCOCC6)c(OC)cc5c3O2)-c2ccccc2C42CCCCCCC2)cc1` [Formula (D), reference compound], for which, in series [1], the “Color fading half-life at 23°C” value turned out to be 3.13 min; the Residual ratio was 51% and 53%; the “Color developing density at 23°C” value is 1.61 - and 0.89 -. In series [2], the “Dissolution for 15 min” value is 4, the “Dissolution for 30 min” value came to 3, the “Dissolution for 45 min” value was found to be 2 and the “Dissolution for 1 hour” value turned out to be 1.
